Assay results as given in patent US20050032908A1, “Methods for treating metabolic syndrome” (priority 2003, published 2005).
Read-outs that look alike come from different tables or passages of the source.

Tests used:
[1] = compared to placebo; cited from earlier work
[2] = cited from earlier work
[3] = Pooled analysis of double-blind, placebo-controlled, non-diabetic studies of at least 6 months duration in subjects with metabolic syndrome at baseline; type: in vivo, human; conditions: compared to placebo; change from baseline to latest assessment after month 6 up to month 12
Text: (§1) The benefits of sibutramine therapy can be extended to subjects with metabolic syndrome. The treatment effect of sibutramine on subjects that had metabolic syndrome at study entry in the STORM trial and by a pooled analysis of double-blind, placebo-controlled, non-diabetic studies of at least 6 months duration were studied. Subjects were identified who had increased abdominal obesity (waist circumference), decreased HDL cholesterol, and elevated triglycerides (TG) at baseline, and who also completed at least 6 months of sibutramine treatment (pooled analysis subjects: 266 sibutramine, 134 placebo; STORM: 80 sibutramine). Since all subjects in the STORM trial received sibutramine for the first 6 months of the study, only subjects subsequently randomized to receive sibutramine for a longer duration were included. The analyses for each variable were based on change from baseline to latest assessment after month 6, up to and including month 12.

[4] = STORM trial subjects that had metabolic syndrome at study entry; type: in vivo, human; conditions: sibutramine treatment group, 80 subjects; change from baseline to latest assessment after month 6 up to month 12
Text: as §1

[5] = subjects who lost and maintained weight, compared to the baseline values of all subjects

## CC(C)CC(N(C)C)C1(c2ccc(Cl)cc2)CCC1 (centres unmarked) [sibutramine, N,N-dimethyl-1-[1-(4-chlorophenyl)cyclobutyl]-3-methylbutylamine]
[1]
  HDL cholesterol: significant improvements
  fasting blood glucose levels: not significantly changed
  insulin levels: significant improvements
  triglyceride levels: significant improvements
  waist circumference (a measure for abdominal obesity): significant improvements
[2]; at the end of two years of treatment, placebo 21%
  subjects who maintained ≧10% weight reduction: 46%
[2]; at the end of two years of treatment, placebo 44%
  subjects who maintained ≧5% weight reduction: 69%
[2]; at two years
  mean fasting insulin levels: reduced
[2]; at two years, placebo 16%
  subjects who completed the trial and maintained at least 80% of their month six weight loss: 43%
[2]; first six months, subjects achieving ≧5% weight reduction
  mean weight loss: 26 lbs
[2]; of the 499 subjects who completed the first six months, sibutramine with reduced calorie diet and increased physical activity
  subjects who achieved a ≧5% weight reduction: 94%
[2]; [5]
  HDL cholesterol: clinically and statistically significant improvements
  triglycerides: clinically and statistically significant improvements
  waist circumference: clinically and statistically significant improvements
[2]; two years
  impaired fasting glucose: significantly changed
[3]
  HDL: clinically and statistically significant improvements
  TG: clinically and statistically significant improvements
  waist circumference: clinically and statistically significant improvements
  weight loss: clinically and statistically significant improvements
[4]
  HDL: favorable changes
  TG: favorable changes
  waist circumference: favorable changes
  weight loss: favorable changes
